Source: patent US20130178466A1, “Treatment of Microbial Infections” (BIOCOPEA LIMITED, priority 2009, published 2013)
Read-outs that look alike come from different tables or passages of the source.

Tests used:
Influenza A/PR/8/34 = experiment: In vivo mouse challenge with lethal influenza (H1N1); design: species or system C57BL/6 female mice; details: H1N1-infected mice, single intra-peritoneal dose on day 3
Procedure: Protocol: Fifty (50) C57BL/6 female mice (6-7 weeks old), were divided into five (5) experimental groups containing ten (10) animals each. On day 1, animals received an intranasal lethal dose (50 μl total, 25 μl nostril) of Influenza A/PR/8/34 under halothane induced anaesthesia. On Day 3, animals received one intra-peritoneal injection (100-150 μl) of the test compound (360 μg ibuproxam (BC1048), 54 μg oxametacin (BC1002), 180 μg benoxaprofen (BC 1005), 189 μg benoxaprofen hydroxamate (BC1006)).
All animals were assessed daily for morbidity, weight loss and survival from Day 1 until at least Day 6. Morbidity variables (i.e. Body Condition, Posture, Activity, Piloerection, Respiration, Vocalisation, Ataxia and Oculo/Nasal Discharges) were recorded according to the following scale of severity: Normal (0), Mild (1), Laboured (2) and Severe/Cull-point (3).
Using standard techniques as described above, mice were infected with a H1N1 virus which was allowed to become established in each of the subjects. […] The weight loss of both treated and untreated mice was then determined.

TNF-α [1] = experiment: TNF-α levels in PBMC under LPS stimulation (ELISA); assay type: cell-based, human; details: for effect on TNF under LPS stimulation (in words): LPS stimulated cells
Procedure: (§1) The two mitogens that the inventors used to stimulate lymphocytes, and therefore assess immune function, were lipopolysaccharide (LPS) and Concanavalin A (Con A). LPS acts on B cells but not T cells, whereas Con A acts on T cells but not B cells. […] Peripheral Blood Mononuclear Cells (PMBC) were independently administered with each mitogen, LPS or Con A, and then treated with ibuproxam, benoxaprofen hydroxamate or pentoxifylline. […] Blood was collected in 6 ml vacutainers (green cap). Blood was processed within 2 h of collection. Materials used: Non-coagulated blood; FCS; RPMI-1640 media supplemented with L-Gln and P/S; PBS; sterile tips and pipettes; Sterile 15 ml Falcon; Sterile V-bottom 96-well plates with lids; Neubauer chamber; Trypan Blue solution; 70% IPA solution; Accuspin-Histopaque tubes (Sigma, A7054) Procedure: • 1. Dilute samples 1:1 in sterile PBS; • 2. Add 30 ml of diluted blood into an Accuspin-Histopaque tube (Sigma, A7054); • 3. Centrifuge at 800 rcf 15 min at room temperature (RT); • 4. After centrifugation, the red blood cells will remain at the bottom below the frit. The monocytes (PBMC) will be present on a layer above the frit, with the plasma on top; • 5. Collect the PBMC layer with a pipette into a fresh 15 ml Falcon tube and top up to 15 ml of PBS; • 6. Centrifuge at 250 rcf 10 min at RT; • 7. Discard the supernatant, flick the pellet and add another 10 ml of PBS; • 8. Centrifuge at 250 rcf 10 min at RT; • 9. Repeat steps 7 and 8; • 10. […] Count cells and make a 4×10^6 cell/ml suspension in complete medium. Add 100 μl of cell suspension per well in a V-bottom 96-well plate. Then add 50 μl of stimulant or vehicle in complete media, and 50 μl of drug or vehicle in complete media. Incubate the cells for 24 h at 37° C. 5% CO2; • 12. […] The values in the Table are expressed as the percentage value of the LPS only control. […] Standard deviation values (st error) are given underneath each value of expressed IFN-γ or TNF-α levels.

IFN-γ [2] = experiment: IFN-γ levels in PBMC under LPS stimulation (ELISA); assay type: cell-based, human; design: production of IFN after LPS stimulation (in words): dose or concentration left out as unconfirmed
Procedure: as §1

IFN-γ [3] = experiment: IFN-γ levels in PBMC under Con A stimulation (ELISA); assay type: cell-based, human; details: for effect against ConA-stimulated IFN production (in words): Con A stimulated cells
Procedure: (§2) The two mitogens that the inventors used to stimulate lymphocytes, and therefore assess immune function, were lipopolysaccharide (LPS) and Concanavalin A (Con A). LPS acts on B cells but not T cells, whereas Con A acts on T cells but not B cells.
(§3) Blood was collected in 6 ml vacutainers (green cap). Blood was processed within 2 h of collection.
(§4) Materials used: Non-coagulated blood; FCS; RPMI-1640 media supplemented with L-Gln and P/S; PBS; sterile tips and pipettes; Sterile 15 ml Falcon; Sterile V-bottom 96-well plates with lids; Neubauer chamber; Trypan Blue solution; 70% IPA solution; Accuspin-Histopaque tubes (Sigma, A7054)
(§5) Procedure: • 1. Dilute samples 1:1 in sterile PBS; • 2. Add 30 ml of diluted blood into an Accuspin-Histopaque tube (Sigma, A7054); • 3. Centrifuge at 800 rcf 15 min at room temperature (RT); • 4. After centrifugation, the red blood cells will remain at the bottom below the frit. The monocytes (PBMC) will be present on a layer above the frit, with the plasma on top; • 5. Collect the PBMC layer with a pipette into a fresh 15 ml Falcon tube and top up to 15 ml of PBS; • 6. Centrifuge at 250 rcf 10 min at RT; • 7. Discard the supernatant, flick the pellet and add another 10 ml of PBS; • 8. Centrifuge at 250 rcf 10 min at RT; • 9. Repeat steps 7 and 8; • 10. Discard the supernatant and resuspend the pellet in 1 ml of complete medium (RPMI-1640 10% FCS); • 11. Count cells and make a 4×10^6 cell/ml suspension in complete medium. Add 100 μl of cell suspension per well in a V-bottom 96-well plate. Then add 50 μl of stimulant or vehicle in complete media, and 50 μl of drug or vehicle in complete media. Incubate the cells for 24 h at 37° C. 5% CO2; • 12. After incubation, take 60 μl of cell supernatant to measure IFNγ and TNFα by ELISA (OptEIA human IFNγ, cat No. 555142 and human TNF, Cat No. 555212) following manufacturer's instructions (BD Biosciences).

TNF-α [4] = experiment: TNF-α levels in PBMC under Con A stimulation (ELISA); assay type: cell-based, human; details: for effect against ConA-stimulated TNF production (in words): Con A stimulated cells
Procedure: as §2, §3, §4, §5

[5] = LPS, 1 μM, percentage of LPS only control (100%)
[6] = LPS, 10 μM, percentage of LPS only control (100%)
[7] = LPS, 100 μM, percentage of LPS only control (100%)
[8] = no LPS, 1 μM, percentage of LPS only control
[9] = no LPS, 10 μM, percentage of LPS only control
[10] = no LPS, 100 μM, percentage of LPS only control
[11] = ConA, 1 μM, compared to 100% untreated cells under Con A stimulation
[12] = ConA, 10 μM, compared to 100% untreated cells under Con A stimulation
[13] = ConA, 100 μM, compared to 100% untreated cells under Con A stimulation

COc1ccc2c(c1)c(CC(=O)NO)c(C)n2C(=O)c1ccc(Cl)cc1 [BC1002, oxametacin]
survival rate versus control, untreated mice (Influenza A/PR/8/34): higher survival rate than the control

CC(C(=O)O)c1ccc2oc(-c3ccc(Cl)cc3)nc2c1 (stereo not shown) [BC1005, benoxaprofen]
survival rate versus control, untreated mice (Influenza A/PR/8/34): higher survival rate than the control

CC(C(=O)NO)c1ccc2oc(-c3ccc(Cl)cc3)nc2c1 (stereo not shown) [BC1006, benoxaprofen hydroxamate]
TNF-α % signal (TNF-α [1]; [5]): 106.25%
TNF-α % signal (TNF-α [1]; [6]): 101.47%
TNF-α % signal (TNF-α [1]; [7]): 57.77%
maximal effect against TNF under LPS stimulation (TNF-α [1]; at the higher concentration): 41%
TNF-α % signal (TNF-α [1]; [8]): −2.29%
TNF-α % signal (TNF-α [1]; [9]): −2.27%
TNF-α % signal (TNF-α [1]; [10]): 11.97%
survival rate versus control, untreated mice (Influenza A/PR/8/34): higher survival rate than the control
IFN-γ % signal (IFN-γ [2]; [5]): 35.29%
IFN-γ % signal (IFN-γ [2]; [6]): 16.67%
IFN-γ % signal (IFN-γ [2]; [7]): 21.21%
IFN-γ % signal (IFN-γ [2]; [8]): 16.74%
IFN-γ % signal (IFN-γ [2]; [9]): 13.46%
IFN-γ % signal (IFN-γ [2]; [10]): 12.38%
effect against ConA-stimulated IFN production (in words) (IFN-γ [3]): clear effects
IFN-γ % signal (IFN-γ [3]; [11]): 98.35%
IFN-γ % signal (IFN-γ [3]; [12]): 33.81%
IFN-γ % signal (IFN-γ [3]; [13]): 3.78%
IFN-γ % signal (IFN-γ [3]; no ConA, 1 μM): 3.76%
IFN-γ % signal (IFN-γ [3]; no ConA, 10 μM): 2.80%
IFN-γ % signal (IFN-γ [3]; no ConA, 100 μM): 1.82%
effect against ConA-stimulated TNF production (in words) (TNF-α [4]): clear effects
TNF-α % signal (TNF-α [4]; [11]): 83.37%
TNF-α % signal (TNF-α [4]; [12]): 38.65%
TNF-α % signal (TNF-α [4]; [13]): 51.50%
TNF-α % signal (TNF-α [4]; no ConA, 1 μM): 2.84%
TNF-α % signal (TNF-α [4]; no ConA, 10 μM): 1.62%
TNF-α % signal (TNF-α [4]; no ConA, 100 μM): 19.51%

CC(=O)CCCCn1c(=O)c2c(ncn2C)n(C)c1=O [BC1042, pentoxifylline]
effect on TNF under LPS stimulation (in words) (TNF-α [1]): less of an effect
TNF-α % signal (TNF-α [1]; [5]): 113.04%
TNF-α % signal (TNF-α [1]; [6]): 107.28%
TNF-α % signal (TNF-α [1]; [7]): 114.60%
TNF-α % signal (TNF-α [1]; [8]): 1.15%
TNF-α % signal (TNF-α [1]; [9]): −2.45%
TNF-α % signal (TNF-α [1]; [10]): −0.80%
survival rate versus control, untreated mice (Influenza A/PR/8/34): higher survival rate than the control
production of IFN after LPS stimulation (in words) (IFN-γ [2]): less pronounced than ibuproxam
IFN-γ % signal (IFN-γ [2]; [5]): 102.11%
IFN-γ % signal (IFN-γ [2]; [6]): 98.28%
IFN-γ % signal (IFN-γ [2]; [7]): 40.73%
IFN-γ % signal (IFN-γ [2]; [8]): 3.98%
IFN-γ % signal (IFN-γ [2]; [9]): 1.48%
IFN-γ % signal (IFN-γ [2]; [10]): 2.03%
effect against ConA-stimulated IFN production (in words) (IFN-γ [3]): little effect
IFN-γ % signal (IFN-γ [3]; [11]): 108.10%
IFN-γ % signal (IFN-γ [3]; [12]): 97.98%
IFN-γ % signal (IFN-γ [3]; [13]): 92.61%
IFN-γ % signal (IFN-γ [3]; no ConA, 1 μM): 1.13%
IFN-γ % signal (IFN-γ [3]; no ConA, 10 μM): 0.42%
IFN-γ % signal (IFN-γ [3]; no ConA, 100 μM): 0.58%
effect against ConA-stimulated TNF production (in words) (TNF-α [4]): little effect
TNF-α % signal (TNF-α [4]; [11]): 101.46%
TNF-α % signal (TNF-α [4]; [12]): 102.31%
TNF-α % signal (TNF-α [4]; [13]): 103.71%
TNF-α % signal (TNF-α [4]; no ConA, 1 μM): 1.11%
TNF-α % signal (TNF-α [4]; no ConA, 10 μM): −2.37%
TNF-α % signal (TNF-α [4]; no ConA, 100 μM): −0.77%

CC(C)Cc1ccc(C(C)C(=O)NO)cc1 (stereo not shown) [BC1048, ibuproxam]
effect on TNF under LPS stimulation (in words) (TNF-α [1]): less of an effect
TNF-α % signal (TNF-α [1]; [5]): 105.78%
TNF-α % signal (TNF-α [1]; [6]): 105.67%
TNF-α % signal (TNF-α [1]; [7]): 109.93%
TNF-α % signal (TNF-α [1]; [8]): 3.14%
TNF-α % signal (TNF-α [1]; [9]): 0.48%
TNF-α % signal (TNF-α [1]; [10]): −1.28%
survival rate versus control, untreated mice (Influenza A/PR/8/34): higher survival rate than the control
IFN-γ % signal (IFN-γ [2]; [5]): 89.21%
IFN-γ % signal (IFN-γ [2]; [6]): 96.62%
IFN-γ % signal (IFN-γ [2]; [7]): −1.28%
production of IFN after LPS stimulation (in words) (IFN-γ [2]; highest concentration): completely blocks
IFN-γ % signal (IFN-γ [2]; [8]): −4.14%
IFN-γ % signal (IFN-γ [2]; [9]): −3.67%
IFN-γ % signal (IFN-γ [2]; [10]): −6.29%
effect against ConA-stimulated IFN production (in words) (IFN-γ [3]): modest effect
IFN-γ % signal (IFN-γ [3]; [11]): 94.90%
IFN-γ % signal (IFN-γ [3]; [12]): 97.25%
IFN-γ % signal (IFN-γ [3]; [13]): 78.18%
IFN-γ % signal (IFN-γ [3]; no ConA, 1 μM): −0.68%
IFN-γ % signal (IFN-γ [3]; no ConA, 10 μM): −0.61%
IFN-γ % signal (IFN-γ [3]; no ConA, 100 μM): −1.04%
effect against ConA-stimulated TNF production (in words) (TNF-α [4]): modest effect
TNF-α % signal (TNF-α [4]; [11]): 109.64%
TNF-α % signal (TNF-α [4]; [12]): 106.74%
TNF-α % signal (TNF-α [4]; [13]): 79.25%
TNF-α % signal (TNF-α [4]; no ConA, 1 μM): 3.08%
TNF-α % signal (TNF-α [4]; no ConA, 10 μM): 0.48%
TNF-α % signal (TNF-α [4]; no ConA, 100 μM): −1.25%
